The numbers were not newly measured in US20210346453A1, “COMPOSITIONS AND METHODS FOR TREATMENT OF COVID-19” (Cognitive Clarity Inc., priority 2020, published 2021), which cites them from elsewhere.

Data set [1] relates to brain plaques and tangles. Conditions: aging brain.
The test system of data set [2] is inflammation in brain (astrocytosis and microgliosis). The note with it: plaque-producing transgenic mice, within 3 months of treatment.
The subject of another data set is COVID-19. The note with it: compared to placebo.

As for `Oc1cc(O)c2c(c1)O[C@H](c1ccc(O)c(O)c1)[C@H](O)[C@H]2c1c(O)cc(O)c2c1O[C@H](c1ccc(O)c(O)c1)[C@H](O)C2` [Proanthocyanidin B2, epicatechin-4β-8-epicatechin], the “brain plaques and tangles” value in data set [1] is “inhibit and reduce”. The “reduction of inflammation in brain (astrocytosis and microgliosis)” value in data set [2] is on record as 69%-80.3%.
As to `Oc1ccc([C@H]2Oc3cc(O)cc(O)c3[C@H](c3c(O)cc(O)c4c3O[C@H](c3ccc(O)c(O)c3)[C@H](O)C4)[C@H]2O)cc1` [epiafzelechin-4β-8-epicatechin], the “brain plaques and tangles” value in data set [1] was “inhibit and reduce”.
On to `Oc1cc(O)c2c(c1)O[C@H](c1ccc(O)c(O)c1)[C@@H](O)[C@@H]2c1c(O)cc(O)c2c1O[C@H](c1ccc(O)c(O)c1)[C@H](O)C2` [proanthocyanidin B4, catechin-4-α-8-epicatechin], for which the “brain plaques and tangles” value in data set [1] was “inhibit and reduce”.
As to `Oc1cc(O)c2c(c1)O[C@H](c1ccc(O)c(O)c1)[C@H](O)[C@H]2c1c(O)cc(O)c2c1O[C@H](c1ccc(O)c(O)c1)[C@H](O)[C@H]2c1c(O)cc(O)c2c1O[C@H](c1ccc(O)c(O)c1)[C@H](O)C2` [proanthocyanidin C1, epicatechin-4β-8-epicatechin-4β-8-epicatechin], the “brain plaques and tangles” value in data set [1] was “inhibit and reduce”.
“Bamlanivimab: monoclonal antibody treatment made by Eli Lilly”: in the data set on COVID-19, the “risk of being hospitalized or visiting the Emergency Room within 28 days after treatment” value is reported as “significantly reduce”.
